Measurements from US20250109112A1, “HERBICIDAL COMPOUNDS” (SYNGENTA CROP PROTECTION AG, priority 2022, published 2025).

Experiments:
Assay type in all cases: in vivo
Details in all cases: 250 g/ha, evaluated after 13 days
[1] = test system: Echinochloa crus-galli (ECHCG); experiment: Post-emergence biological efficacy, ECHCG
Description: (§1) Seeds of weeds and/or crops were sown in standard soil in pots (Amaranthus palmeri (AMAPA), Chenopodium album (CHEAL), Euphorbia heterophylla (EPHHL), Ipomoea hederacea (IPOHE), Eleusine indica (ELEIN), Lolium perenne (LOLPE), Digitaria sanguinalis (DIGSA), Setaria faberi (SETFA), Echinochloa crus-galli (ECHCG)). After cultivation for 14 days under controlled conditions in a glasshouse (at 24/19° C., day/night; 16 hours light), the plants were sprayed with an aqueous spray solution derived from the formulation of the technical active ingredient in a small amount of acetone and a special solvent and emulsifier mixture referred to as IF50 (11.12% Emulsogen EL360 TM+44.44% N-methylpyrrolidone+44.44% Dowanol DPM glycol ether), to create a 50 g/l solution which was then diluted using 0.2% Genapol XO80 as diluent to give the desired final dose of test compound.
(§2) The test plants were then grown under controlled conditions in the glasshouse (at 24/18° C., day/night; 15 hours light; 50% humidity) and watered twice daily. After 13 days the test was evaluated (100=total damage to plant; 0=no damage to plant).

[2] = test system: Amaranthus palmeri (AMAPA); experiment: Pre-emergence biological efficacy, AMAPA
Description: as §1, with “Lolium perenne (LOLPE),” for “Chenopodium album (CHEAL),”, “(IPOHE),” for “(IPOHE), Eleusine indica (ELEIN), Lolium perenne (LOLPE), Digitaria sanguinalis (DIGSA),”, “one day” for “14 days”
as §2

[3] = test system: Euphorbia heterophylla (EPHHL); experiment: Post-emergence biological efficacy, EPHHL
Description: as §1, §2

[4] = test system: Amaranthus palmeri (AMAPA); experiment: Post-emergence biological efficacy, AMAPA
Description: as §1, §2

Lolium perenne (LOLPE) [5] = experiment: Post-emergence biological efficacy, LOLPE
Description: as §1, §2

Setaria faberi (SETFA) [6] = experiment: Pre-emergence biological efficacy, SETFA
Description: as §1, with “Lolium perenne (LOLPE),” for “Chenopodium album (CHEAL),”, “(IPOHE),” for “(IPOHE), Eleusine indica (ELEIN), Lolium perenne (LOLPE), Digitaria sanguinalis (DIGSA),”, “one day” for “14 days”
as §2

[7] = test system: Digitaria sanguinalis (DIGSA); experiment: Post-emergence biological efficacy, DIGSA
Description: as §1, §2

Lolium perenne (LOLPE) [8] = experiment: Pre-emergence biological efficacy, LOLPE
Description: as §1, with “Lolium perenne (LOLPE),” for “Chenopodium album (CHEAL),”, “(IPOHE),” for “(IPOHE), Eleusine indica (ELEIN), Lolium perenne (LOLPE), Digitaria sanguinalis (DIGSA),”, “one day” for “14 days”
as §2

[9] = test system: Euphorbia heterophylla (EPHHL); experiment: Pre-emergence biological efficacy, EPHHL
Description: as §1, with “Lolium perenne (LOLPE),” for “Chenopodium album (CHEAL),”, “(IPOHE),” for “(IPOHE), Eleusine indica (ELEIN), Lolium perenne (LOLPE), Digitaria sanguinalis (DIGSA),”, “one day” for “14 days”
as §2

[10] = test system: Echinochloa crus-galli (ECHCG); experiment: Pre-emergence biological efficacy, ECHCG
Description: as §1, with “Lolium perenne (LOLPE),” for “Chenopodium album (CHEAL),”, “(IPOHE),” for “(IPOHE), Eleusine indica (ELEIN), Lolium perenne (LOLPE), Digitaria sanguinalis (DIGSA),”, “one day” for “14 days”
as §2

[11] = test system: Ipomoea hederacea (IPOHE); experiment: Pre-emergence biological efficacy, IPOHE
Description: as §1, with “Lolium perenne (LOLPE),” for “Chenopodium album (CHEAL),”, “(IPOHE),” for “(IPOHE), Eleusine indica (ELEIN), Lolium perenne (LOLPE), Digitaria sanguinalis (DIGSA),”, “one day” for “14 days”
as §2

[12] = test system: Chenopodium album (CHEAL); experiment: Post-emergence biological efficacy, CHEAL
Description: as §1, §2

Setaria faberi (SETFA) [13] = experiment: Post-emergence biological efficacy, SETFA
Description: as §1, §2

[14] = test system: Ipomoea hederacea (IPOHE); experiment: Post-emergence biological efficacy, IPOHE
Description: as §1, §2

Eleusine indica (ELEIN) = experiment: Post-emergence biological efficacy, ELEIN
Description: as §1, §2

| SMILES | damage to plant (100=total damage; 0=no damage), ECHCG [1] | damage to plant (100=total damage; 0=no damage), AMAPA [2] | damage to plant (100=total damage; 0=no damage), EPHHL [3] | damage to plant (100=total damage; 0=no damage), AMAPA [4] | damage to plant (100=total damage; 0=no damage), LOLPE (Lolium perenne (LOLPE) [5]) | damage to plant (100=total damage; 0=no damage), SETFA (Setaria faberi (SETFA) [6]) | damage to plant (100=total damage; 0=no damage), DIGSA [7] | damage to plant (100=total damage; 0=no damage), LOLPE (Lolium perenne (LOLPE) [8]) | damage to plant (100=total damage; 0=no damage), EPHHL [9] | damage to plant (100=total damage; 0=no damage), ECHCG [10] | damage to plant (100=total damage; 0=no damage), IPOHE [11] | damage to plant (100=total damage; 0=no damage), CHEAL [12] | damage to plant (100=total damage; 0=no damage), SETFA (Setaria faberi (SETFA) [13]) | damage to plant (100=total damage; 0=no damage), IPOHE [14] | damage to plant (100=total damage; 0=no damage), ELEIN (Eleusine indica (ELEIN)) |
| --- | --- | --- | --- | --- | --- | --- | --- | --- | --- | --- | --- | --- | --- | --- | --- |
| COC(=O)CCOC(=O)C(C)Sc1cc(-n2c(=O)n(C)c(=S)n(C)c2=O)c(F)cc1Cl (stereo not drawn) [Compound 9-245, (3-methoxy-3-oxo-propyl) 2-[2-chloro-5-(3,5-dimethyl-2,6-dioxo-4-thioxo-1,3,5-triazinan-1-yl)-4-fluoro-phenyl]sulfanylpropanoate] | 70 | 100 | 90 | 100 | 100 | 100 | 30 | 80 | 100 | 80 | 90 | 100 | 40 | 100 | 80 |
| COC(=O)CCNC(=O)C(C)Sc1cc(-n2c(=O)n(C)c(=S)n(C)c2=O)c(F)cc1Cl (stereo not drawn) [Compound 9-272, methyl 3-[2-[2-chloro-5-(3,5-dimethyl-2,6-dioxo-4-thioxo-1,3,5-triazinan-1-yl)-4-fluoro-phenyl]sulfanylpropanoylamino]propanoate] | 40 | 100 | 90 | 80 | 100 | 100 | 70 | 90 | 100 | 80 | 100 | 90 | 90 | 100 | 80 |
